Measured values: ChEMBL document CHEMBL5728099, “Thienopyridines and benzothiophenes useful as IRAK4 inhibitors” (2020)

Molecular target: T1, Interleukin-1 receptor-associated kinase 4 (Homo sapiens, UniProt Q9NWZ3)
T1 sequence (Q9NWZ3 whole entry): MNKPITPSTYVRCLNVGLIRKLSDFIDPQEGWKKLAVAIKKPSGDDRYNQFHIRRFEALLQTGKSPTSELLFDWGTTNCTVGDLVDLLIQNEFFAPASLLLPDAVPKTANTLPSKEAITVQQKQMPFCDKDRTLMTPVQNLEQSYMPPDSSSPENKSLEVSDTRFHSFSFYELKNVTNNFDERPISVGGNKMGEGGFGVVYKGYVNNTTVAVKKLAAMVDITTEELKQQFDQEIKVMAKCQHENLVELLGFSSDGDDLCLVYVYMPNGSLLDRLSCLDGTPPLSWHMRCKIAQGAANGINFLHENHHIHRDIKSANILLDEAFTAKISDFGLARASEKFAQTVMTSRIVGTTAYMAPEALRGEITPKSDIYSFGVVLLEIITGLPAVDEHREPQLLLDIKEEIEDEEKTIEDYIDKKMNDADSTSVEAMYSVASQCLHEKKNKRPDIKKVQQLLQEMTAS
Assay: Inhibition Assay: The assays were performed in U-bottom 384-well plates. The final assay volume was 30 μL prepared from 15 μL additions of enzyme and substrates (fluoresceinated peptide and ATP) and test compounds in assay buffer (20 mM HEPES pH 7.2, 10 mM MgCl2, 0.015% Brij 35 and 4 mM DTT). The reaction was initiated by the combination of IRAK4 with substrates and test compounds. The reaction mixture was incubated at room temperature for 60 min. and terminated by adding 45 μL of 35 mM EDTA to each sample. The reaction mixture was analyzed on the Caliper LABCHIP® 3000 (Caliper, Hopkinton, Mass.) by electrophoretic separation of the fluorescent substrate and phosphorylated product. Inhibition data were calculated by comparison to no enzyme control reactions for 100% inhibition and vehicle-only reactions for 0% inhibition. The final concentrations of reagents in the assays are ATP, 500 μM; FL-IPTSPITTTYFFFKKK peptide 1.5 μM; IRAK4, 0.6 nM; and DMSO, 1.6%.

- IC50: 595 nM
Structure (SMILES): CC[C@H]1[C@@H](COc2csc3cc(C(N)=O)c(OC)nc23)NC(=O)C1(C)C
